Values of other authors, collected in patent US11992483B2, “Emulsions for local anesthetics” (Cali Pharmaceuticals, LLC, priority 2021, dated 2024).
Counter-ions that a name gives are not always drawn. Like-named read-outs stand apart in the source and are kept apart here.

Conditions: for log P: octanol/water

Row | SMILES | solubility in water | log P | P (octanol:water partition coefficient) | log P (hydrochloride) | P (octanol:water partition coefficient) (hydrochloride)
1 | CCCN1CCCC[C@H]1C(=O)Nc1c(C)cccc1C [ropivacaine free base, ropivacaine] | insoluble in water | 2.9 | 794 |  | 
2 | CCCN1CCCC[C@H]1C(=O)Nc1c(C)cccc1C [ropivacaine hydrochloride] |  |  |  | 1.1 | 14
